The results in this text go back to patent US20220186210A1, “METHOD FOR I[…]” (priority 2019, published 2022).

Test [1] has as its system HeLa cells with PSMB5 point mutations. Kind of test: Pooled ssODN point-mutation validation, Bortezomib resistant colonies (MTT viability). The class given is cell-based. Conditions: bortezomib 8 ng/ml, 72 hour, FIG. 9D. How it is done: For the validation of critical mutations of PSMB5 and PLK1, sgRNAs were designed near the mutation site, and each 119 nt ssODN donor encoded one amino acid substitution for a validated residue. All sgRNAs (sgRNA sequences for the validation of critical mutations) and ssODN donor sequences (ssODN donors encoded one amino acid substitution for a validated residue) are listed in Table 2 as follows.
HeLa cells were transfected with 1 μg of sgRNA and 2 μg of the ssODN donor in six-well plates. Fourteen days after transfection, 1.5×10^5 cells were seeded in six-well plates 24 hour before drug selection. […] The genomes of drug-resistant cells were extracted using the TIANamp Genomic DNA Kit (TIANGEN).
(§1) Because missense point mutations were the predominant formats conferring drug resistance for both PSMB5 and PLK1, we decided to employ ssODN-mediated method^(24) to create specific point mutations instead of deletions for validation. We selected nine amino acid residues (R78, T80, V90, M104, A108, D110, C111, C122 and G242) in PSMB5, among which D110 and C111 were included as controls. To choose a proper amino acid for point mutation, the mutant types from screening results or previous reports were preferential choices. […] It remains to be determined how V90 mediates drug sensitivity and whether V90 alteration changes the structure around Bortezomib binding pocket.

In test [2] the test system is HeLa cell clones with PSMB5 point mutations. Kind of test: Cell viability assay of single clones with PSMB5 point mutations. The class given is cell-based. Particulars: single clones with PSMB5 R78N, V9OL, A108T, C122F, G242D; FIG. 9E. The protocol: Cells were seeded in 96-well plates 24 hour before drug or toxin treatment (5,000 cells for diphtheria toxin (DT) and 3,000 cells for bortezomib), and different concentrations of bortezomib or DT were added. Cells were incubated at 37° C. for 48 hour (DT) or 72 hour (bortezomib) before the addition of 1 mg/ml of MTT (3-[4,5 -dimethylthiazol-2-yl]-2,5 -diphenyltetrazolium bromide). Spectrophotometer readings at 570 nm were collected using BioTek Cytation5 (BioTek Instruments).
as §1, with “choices. For the rest, we made all the substitution to alanine (Table 2).” for “choices.”

As to `CC(C)C[C@H](NC(=O)[C@H](Cc1ccccc1)NC(=O)c1cnccn1)B(O)O` [Bortezomib], the Bortezomib resistant colonies result in test [1] (PSMB5 control mutations D110A and C111A) is “failed to produce Bortezomib resistant colonies”; in test [1] (PSMB5 mutations R78N, T80A, V90A, M104A, A108T, C122F, G242D), “produced variable number of Bortezomib resistant colonies”. Moreover, the “cell susceptibility to Bortezomib” value in test [2] is given as “conferred Bortezomib resistance”.
